Measurements: US8334316B2, “Substituted organosulfur compounds and methods of using thereof” (ACEA Biosciences, Inc., priority 2004, dated 2012)
Where “and” joins values, the source holds several entries; their conditions need not be identical. Identical values can stand only once.

What was measured:
[1] = test system: P388 lymphocytic leukemia; experiment: Murine P388 lymphocytic leukemia model (intraperitoneal transplantation), life span; format: in vivo, mouse; details: 50 mg/kg/d iv x7 qd
Procedure: Both male and female mice were used.
Preparation and Administration of Test Compounds.
To prepare cancer cells for the P388 murine lymphocytic leukemia model, ascites of a P388 leukemia-bearing mouse were removed under sterile condition. The ascites were diluted in normal saline (1:6 for ascites to normal saline) to prepare cell suspension. 0.2 mL of the cell suspension was then injected intraperitoneally. […] The life span of carrier mice was determined within 30 days. The life span ratio comparing to the negative control group of the carrier mice in each compound treatment group was calculated according to the formula: Life span ratio %=average life span for the compound treatment group/average life span for the negative control group×100% (4)

[2] = test system: ao10/17 human ovarian cancer; experiment: ao10/17 human ovarian cancer xenograft in nude mice (Example 4); format: in vivo; details: for Body weight of mice / Mice with palpable tumor / total mice / Tumor volume (cm^3): 50 mg/kg iv x7 qd
Procedure: Only female mice were used in this study. […] The high, middle and low doses of ACEA100108 were 50, […] and 8 mg/kg/d, respectively.
Preparation and Administration of Test Compounds. […] The high, middle and low dose of compound ACEA100108 was 50, 20 and 8 mg/kg, respectively.
The tumor tissues were grounded in normal saline (1:6 for tumor volume to saline volume) and tumor cell suspensions were prepared in the normal saline.
For the human ovarian cancer xenograft model, all used materials, including animal food, animal cage, supporting materials and apparatus contacted by animals, were high-pressure sterilized. Nude mice were maintained in laminar flow shelves under SPF condition. After tumor transplantation, mouse weight and tumor size in each compound dosage group were dynamically monitored and plotted. The tumor size was determined by measuring the major axis (a) and minor axis (b) of the tumor, and tumor volume was calculated according to the equation (3) in Example 3.

[3] = test system: purified bovine brain tubulin; experiment: In vitro microtubule dynamics (dynamic instability) assay, video microscopy; format: biochemical
Procedure: Tubulin Purification and Microtubule Dynamics Assays. Tubulin was purified, as described in the literature (“Kinetic stabilization of microtubule dynamic instability in vitro by vinblastine”, Toso, R. J., Jordan, […]., Matsumoto, B. and Wilson, L., Biochemistry, 1993, 32, 1285-1293). Briefly, microtubule-associated protein-rich bovine brain microtubule protein was prepared by three cycles of assembly and disassembly. Tubulin was purified from other microtubule proteins by elution through a Whatman P-11 phosphocellulose column equilibrated in PEM50 (50 mM Pipes, 1 mM MgSO4, 1 mM EGTA, 0.1 mM GTP). Purified tubulin (>99% pure) was drop-frozen in liquid nitrogen and stored at -70° C. […] The dynamics of individual microtubules were recorded at 37° C. using differential interference contrast enhanced video microscopy. The ends were designated as plus or minus on the basis of the growth rate, the number of microtubules that grew at opposite ends of the seeds, and the relative lengths of the microtubules (Panda, D., Goode, […]. and Wilson, L., Kinetic stabilization of microtubule dynamics at steady state by tau and microtubule-binding domains of tau, Biochemistry, 1995, 34, 11117-11127; Walker, R. A., O'Brien, […]., Voter, W. A., Erickson, H. P. and Salmon, E. D., Dynamic instability of individual microtubules analyzed by video light microscopy: rate constants and transition frequencies, J. Cell Biol. 1988, 107, 1437-1448). Plus ends were analyzed for 10 minutes per slide during the steady-state phase of polymerization ( 45 min after initiation of polymerization). Life histories of individual microtubules were collected as described by Panda et al. 1995 (Panda, D., Goode, […]. and Wilson, L., Kinetic stabilization of microtubule dynamics at steady state by tau and microtubule-binding domains of tau, Biochemistry, 1995, 34 11117-11127) with modifications. Data points were collected at 1-3 s intervals. […] Average rates, lengths and durations are the averages of independent events. The catastrophe frequency was calculated by dividing the number of shortening events by the total time of growth and attenuation tracked, and rescue frequency was calculated by dividing the number of rescue events by the total time of shortening tracked. To control for experimental error, each condition was filmed over multiple days using at least two distinct tubulin/GTP mixtures (2-3 slides each). No gross variation in microtubule dynamics was observed between mixtures or slides of a given condition. The concentration of drug used in dynamic instability assays was chosen by initially observing microtubules stabilized with half the concentration used in microtubule assembly assays.

mouse Lewis lung cancer = experiment: In vivo antitumor efficacy, mouse Lewis lung cancer model, Example 3 (ACEA100108); details: for Inhibition rate (%): vs solvent control
Procedure: For human tumor xenograft models, cancer cells were passed twice in vivo before being transplanted into the nude mice for the study. Cultured human cancer cells in flask were first xenograft-transplanted in immunodeficient nude mice. After the cancer cells grew to a tumor of certain sizes in the nude mice, the tumor was removed form the nude mice and tumor tissues were dissected. The cell suspensions were prepared from the dissected tumor tissue and transplanted back to immunodeficient nude mice again (i.e. the second passage of cancer cells in human cancer xenograft-transplanted model). After the cancer cells grew to certain size, the tumor was removed from nude mice and the tumor tissues were dissected. The cell suspensions were prepared from dissected tissues and were used for the study of human cancer xenograft models described here.
Both male and female mice were used. However, for each experiment, animals of same sex were used. For the mouse transplanted tumor model, the numbers of animals tested were as follows: 10 for each dose group, 10 for positive control group and 20 for negative control group. For human tumor xenograft model, the numbers of animals tested were as follows: 6 for each dose group, 6 for positive control group and 12 for negative control group.
Test control. For negative control, each mouse was administered intravenously with the solvent only having the same volume and same concentration as those used in high dose ACEA100108 test, once a day, for 7 consecutive days. […] In a reference group, DBTS was administered intravenously at 50 mg/kg, once a day for 7 consecutive days.
Preparation and Administration of Test Compounds. […] Each time before use, this solution was diluted in normal saline to achieve desired ACEA100108 concentrations. Each mouse (about 20 g in weight) was administered intravenously with the compound solution of 0.5 mL at a controlled injection speed of 0.5 ml/0.5 min. 24 hrs after the tumor transplantation, intravenous injections of compound solutions into carrier mice were performed once a day, for consecutive 7 or 10 days.
Preparation of Tumor Cells for Transplantation and Determination of Compound Efficacy. To prepare the cancer cells for mouse Lewis lung cancer model, human breast cancer xenograft model and human colon cancer xenograft model, the fast growing tumors were first removed from the transplanted tumor mice. The tumor tissues were dissected and tumor cell suspensions were prepared in normal saline to have a concentration of 2-4×10^7 cells/ml. 0.2 ml of cell suspension was subcutaneously injected into the axillary region (right-side) of each mouse. […] Between two and four weeks after transplantation, mice were sacrificed and the transplanted tumors were removed from experimental mice.

c1ccc(CSSSCc2ccccc2)cc1 [DBTS, Dibenzyl trisulfide]
animal No. beginning/end (survivors) [1]: 10/0
Average life span X ± SD ([1]; observed within 30 days): 10.6 ± 1.26
Life span ratio % ([1]; vs solvent control): 109.28%
Body weight of mice ([2]; 0 d (beginning), listed as ACEA100101): 17.3 g and 17.3 ± 1 g
Mice with palpable tumor / total mice ([2]; 7 D after transplantation): 2/6
Tumor volume (cm^3) ([2]; 7 D after transplantation): 0.01 cm^3
Body weight of mice ([2]; 7 d): 17.3 ± 1.4 g
Body weight of mice ([2]; 14 d): 18.8 ± 1.2 g
Mice with palpable tumor / total mice ([2]; 14 d): 6/6
Tumor volume (cm^3) ([2]; 14 d): 0.01 cm^3
Body weight of mice ([2]; 21 d): 19.5 ± 1 g
Tumor volume (cm^3) ([2]; 21 d): 0.129 ± 0.01 cm^3
Tumor volume (cm^3) ([2]; 24 d): 0.225 ± 0.04 cm^3
Body weight of mice ([2]; 24 d (end), listed as ACEA100101): 21.3 g and 21.3 ± 1.2 g
Tumor weight ([2]; 50 mg/kg/d iv x7 qd): 0.602 ± 0.10 g
tumor inhibition rate % ([2]; 50 mg/kg/d iv x7 qd, vs solvent control): 57.30%
% time spent in attenuation phase ([3]; DBTS .1uM): 52%
% time spent in growth phase ([3]; DBTS .1uM): 45%
% time spent in shortening phase ([3]; DBTS .1uM): 3%
Dynamicity ([3]; DBTS .1uM): 1.72 um/min
Frequency of transitions ± SD: Catastrophes ([3]; DBTS .1uM): 0.17 ± 0.04 events/min
Frequency of transitions ± SD: Rescues ([3]; DBTS .1uM): 5.3 ± 1.3 events/min
Frequency of transitions ± SD: Total ([3]; DBTS .1uM): 0.50 ± 0.07 events/min
Growth Rate ± SEM ([3]; DBTS .1uM): 1.55 ± 0.1 um/min
Mean duration of attenuation ± SEM ([3]; DBTS .1uM): 2.15 ± 0.3
Shortening Rate ± SEM ([3]; DBTS .1uM): 35.40 ± 6.0 um/min
Duration of Event ([3]; growth events, DBTS .1uM): 2.21 ± 0.3 min
Length of Excursion ([3]; growth events, DBTS .1uM): 3.34 ± 0.3 um
Effect on duration of growth events ([3]; plus ends, steady state): increase the average duration of growth events
Effect on length of growth events ([3]; plus ends, steady state): increase the average duration of growth events and consequently the average length grown in a growth event
Effect on length of shortening events ([3]; plus ends, steady state): reduced
Effect on microtubule growth rate ([3]; plus ends, steady state): did not affect the microtubule growth rate
Effect on percentage of time spent growing ([3]; plus ends, steady state): increased the percentage of time spent growing
Duration of Event ([3]; shortening events, DBTS .1uM): 0.17 ± 0.04 min
Length of Excursion ([3]; shortening events, DBTS .1uM): 6.02 ± 0.3 um
Animal No. beginning/end (survival) (mouse Lewis lung cancer; 25 mg/kg/d iv x7 qd): 10/10
Animal weight (g) beginning (mouse Lewis lung cancer; 25 mg/kg/d iv x7 qd): 20.5 g
Animal weight (g) end (mouse Lewis lung cancer; 25 mg/kg/d iv x7 qd): 23.6 g
Tumor weight (mouse Lewis lung cancer; 25 mg/kg/d iv x7 qd): 1.14 ± 0.17 g
Inhibition rate (%) (mouse Lewis lung cancer; 25 mg/kg/d iv x7 qd): 57.93%
Animal No. beginning/end (survival) (mouse Lewis lung cancer; 100 mg/kg/d iv x7 qd): 10/6
Animal weight (g) beginning (mouse Lewis lung cancer; 100 mg/kg/d iv x7 qd): 20.7 g
Animal weight (g) end (mouse Lewis lung cancer; 100 mg/kg/d iv x7 qd): 23.1 g
Tumor weight (mouse Lewis lung cancer; 100 mg/kg/d iv x7 qd (text: administered only 5 times because of toxicity)): 1.00 ± 0.15 g
Inhibition rate (%) (mouse Lewis lung cancer; 100 mg/kg/d iv x7 qd (text: only 5 times because of toxicity)): 63.10%
